Experimental data published in PubChem BioAssay AID248 (DTP/NCI, 2004).
“And” between values parts separate entries of the source, which are not always exact repeats. Equal values may be shown once. Inconclusive results and toxic doses are left out.

System: L1210 leukemia ip in BDF1 mice, survival T/C
Test: NCI In Vivo Anticancer Drug Screen. Data for tumor model L1210 Leukemia (intraperitoneal) in B6D2F1 (BDF1) mice
Details: endpoint: mean survival time, higher = longer survival
Outline: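 Survival endpoint. Drug-treated group vs vehicle group, expressed as T divided by C. Tumor passaged by transplantation.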

[1] = dose: 100.0 mg/kg/injection, schedule: Q01DX001 (ip), vehicle: saline
[2] = dose: 200.0 mg/kg/injection, schedule: Q01DX001 (ip), vehicle: saline
[3] = dose: 400.0 mg/kg/injection, schedule: Q01DX001 (ip), vehicle: saline
[4] = dose: 100.0 mg/kg/injection, schedule: Q04DX002 (ip), vehicle: Klucel (hydroxypropylcellulose) (HPC)
[5] = dose: 50.0 mg/kg/injection, schedule: Q01DX009 (ip), vehicle: saline
[6] = dose: 100.0 mg/kg/injection, schedule: Q01DX009 (ip), vehicle: saline
[7] = dose: 100.0 mg/kg/injection, schedule: Q04DX003 (ip), vehicle: saline
[8] = dose: 50.0 mg/kg/injection, schedule: Q01DX009 (ip), vehicle: saline with Tween-80
[9] = dose: 100.0 mg/kg/injection, schedule: Q04DX003 (ip), vehicle: Klucel (hydroxypropylcellulose) (HPC)
[10] = dose: 200.0 mg/kg/injection, schedule: Q04DX003 (ip), vehicle: Klucel (hydroxypropylcellulose) (HPC)
[11] = dose: 100.0 mg/kg/injection, schedule: Q01DX001 (ip), vehicle: carboxymethylcellulose (CMC)
[12] = dose: 200.0 mg/kg/injection, schedule: Q01DX001 (ip), vehicle: carboxymethylcellulose (CMC)
[13] = dose: 400.0 mg/kg/injection, schedule: Q04DX003 (ip), vehicle: Klucel (hydroxypropylcellulose) (HPC)
[14] = dose: 100.0 mg/kg/injection, schedule: Q04DX003 (ip), vehicle: saline with Tween-80

In the case of `CCCCN(CCCC)CCNc1ccc(C)c2sc3ccccc3c(=O)c12`, the T/C (dose: 40.0 mg/kg/injection, schedule: Q01DX Z (ip), vehicle: carboxymethylcellulose (CMC)) was 104 % of control and the T/C (dose: 600.0 mg/kg/injection, schedule: Q01DX Z (ip), vehicle: carboxymethylcellulose (CMC)) was 95 % of control.

In the case of `O=P(O)(O)Cc1c(Cl)c(Cl)c(CP(=O)(O)O)c(Cl)c1Cl`, the T/C [1] was 107 % of control, the T/C [2] was 104 % of control and the T/C [3] was 104 % of control.

For `CC(C)(CO)N=Cc1cccc(Br)c1`, the T/C [1] was 96 % of control, the T/C [2] was 98 % of control and the T/C [3] was 98 % of control.

With `O=C(O)C1Cc2ccccc21` (centres undefined) the T/C (dose: 25.0 mg/kg/injection, schedule: Q04DX002 (ip), vehicle: Klucel (hydroxypropylcellulose) (HPC)) was 96 % of control, the T/C (dose: 50.0 mg/kg/injection, schedule: Q04DX002 (ip), vehicle: Klucel (hydroxypropylcellulose) (HPC)) was 96 % of control and the T/C [4] was 92 % of control.

In the case of `CC(N)C(O)c1cccc(O)c1` (centres undefined), the T/C (dose: 6.25 mg/kg/injection, schedule: Q01DX009 (ip), vehicle: saline) was 117 % of control, the T/C (dose: 12.5 mg/kg/injection, schedule: Q01DX009 (ip), vehicle: saline) was 100 % of control and the T/C (dose: 25.0 mg/kg/injection, schedule: Q01DX009 (ip), vehicle: saline) was 105 % of control. For the same compound, the T/C (dose: 25.0 mg/kg/injection, schedule: Q04DX003 (ip), vehicle: saline) was 108 % of control, the T/C [5] was 100 % of control and the T/C (dose: 50.0 mg/kg/injection, schedule: Q04DX003 (ip), vehicle: saline) was 105 % of control. The T/C [6] was 117 % of control and the T/C [7] was 97 % of control.

For `Nc1ccc(Nc2ccccc2)c(N)c1`, the T/C [5] was 98 % of control, the T/C (dose: 75.0 mg/kg/injection, schedule: Q01DX009 (ip), vehicle: saline) was 102 % of control and the T/C (dose: 75.0 mg/kg/injection, schedule: Q04DX003 (ip), vehicle: saline) was 103 % of control. The T/C (dose: 150.0 mg/kg/injection, schedule: Q04DX003 (ip), vehicle: saline) was 96 % of control.

For `Nc1ccc(CCNS(=O)(=O)c2ccc(S(=O)(=O)F)cc2)cc1`, the T/C [1] was 103 % of control, the T/C [2] was 97 % of control and the T/C [3] was 107 % of control.

`CC(C)(C(=Nc1ccccc1)N1CCCCC1)c1ccccc1` was tested, and the T/C (dose: 75.0 mg/kg/injection, schedule: Q01DX001 (ip), vehicle: saline) was 97 % of control, the T/C (dose: 150.0 mg/kg/injection, schedule: Q01DX001 (ip), vehicle: saline) was 94 % of control and the T/C (dose: 300.0 mg/kg/injection, schedule: Q01DX001 (ip), vehicle: saline) was 96 % of control.

`O=C(O)c1cc2ccccc2o1` was tested, and the T/C [8] was 90 % of control and the T/C (dose: 100.0 mg/kg/injection, schedule: Q01DX009 (ip), vehicle: saline with Tween-80) was 97 % of control.

In the case of `Cc1cc(N(CCOS(C)(=O)=O)CCOS(C)(=O)=O)ccc1C=Nc1ccc(-c2csc(COc3ccccc3)n2)cc1`, the T/C (dose: 66.0 mg/kg/injection, schedule: Q04DX003 (ip), vehicle: Klucel (hydroxypropylcellulose) (HPC)) was 116 % of control, the T/C [9] was 98 % of control and the T/C (dose: 125.0 mg/kg/injection, schedule: Q04DX003 (ip), vehicle: Klucel (hydroxypropylcellulose) (HPC)) was 158 % of control. The T/C (dose: 150.0 mg/kg/injection, schedule: Q04DX003 (ip), vehicle: Klucel (hydroxypropylcellulose) (HPC)) was 154 % of control and the T/C [10] was 151 % of control.

In the case of `CC(=O)OCC1C2CCC(C2)C1C` (centres undefined), the T/C (dose: 75.0 mg/kg/injection, schedule: Q01DX001 (ip), vehicle: acetone) was 95 % of control, the T/C (dose: 150.0 mg/kg/injection, schedule: Q01DX001 (ip), vehicle: acetone) was 101 % of control and the T/C (dose: 300.0 mg/kg/injection, schedule: Q01DX001 (ip), vehicle: acetone) was 114 % of control.

With `NC(=S)N/N=C/c1ccc(Br)s1` the T/C [11] was 87 % of control and the T/C [12] was 100 % of control.

In the case of `COc1ccc(OC)c(NC(=O)Nc2ccc(Nc3ccccc3)cc2)c1`, the T/C [10] was 93 % of control and the T/C [13] was 100 % of control.

With `CNC(=O)c1cn(C2OC(CO)C(O)C2O)c2ncnc(N)c12` (centres undefined) the T/C (dose: 88.0 mg/kg/injection, schedule: Q01DX001 (ip), vehicle: water) was 120 % of control and the T/C (dose: 400.0 mg/kg/injection, schedule: Q01DX001 (ip), vehicle: water) was 117 % of control.

In the case of `CC(C)N(C(=O)Nc1ccccc1Cl)c1ccccc1`, the T/C (dose: 100.0 mg/kg/injection, schedule: Q01DX009 (ip), vehicle: Klucel (hydroxypropylcellulose) (HPC)) was 96 % of control, the T/C [9] was 92 % of control and the T/C (dose: 200.0 mg/kg/injection, schedule: Q01DX009 (ip), vehicle: Klucel (hydroxypropylcellulose) (HPC)) was 92 % of control. For the same compound, the T/C [10] was 100 % of control, the T/C (dose: 400.0 mg/kg/injection, schedule: Q01DX009 (ip), vehicle: Klucel (hydroxypropylcellulose) (HPC)) was 97 % of control and the T/C [13] was 92 % of control.

In the case of `O=C(O)CC(C(=O)O)=C1CCCCC1`, the T/C [5] was 98 % of control, the T/C [6] was 98 % of control and the T/C (dose: 200.0 mg/kg/injection, schedule: Q01DX009 (ip), vehicle: saline) was 100 % of control.

With `CN1CCCC(C)(CN2c3ccccc3Sc3ccccc32)C1` (centres undefined) the T/C [7] was 111 % of control and the T/C (dose: 200.0 mg/kg/injection, schedule: Q04DX003 (ip), vehicle: saline) was 105 % of control.

`O=S(=O)(Cc1ccc(Br)cc1)Cc1ccc(Br)cc1` was tested, and the T/C (dose: 50.0 mg/kg/injection, schedule: Q01DX001 (ip), vehicle: saline) was 102 % of control, the T/C [1] was 90 % of control and the T/C [2] was 88 % of control. The T/C [3] was 90 % of control.

`[O-][n+]1onc2c(-c3ccccc3)nnc(-c3ccccc3)c21` was tested, and the T/C [14] was 108 % of control, the T/C (dose: 200.0 mg/kg/injection, schedule: Q04DX003 (ip), vehicle: saline with Tween-80) was 110 % of control and the T/C (dose: 400.0 mg/kg/injection, schedule: Q04DX003 (ip), vehicle: saline with Tween-80) was 111 % of control.

`COC(=O)/C=C(\C)Oc1c(Cl)c(Cl)c(Cl)c(Cl)c1Cl` was tested, and the T/C (dose: 100.0 mg/kg/injection, schedule: Q01DX009 (ip), vehicle: saline sonified) was 96 % of control, the T/C (dose: 200.0 mg/kg/injection, schedule: Q01DX009 (ip), vehicle: saline sonified) was 100 % of control and the T/C (dose: 400.0 mg/kg/injection, schedule: Q01DX009 (ip), vehicle: saline sonified) was 100 % of control.

In the case of `C[N+](C)(C)C1(c2ccc(F)cc2)CCCCC1`, the T/C (dose: 5.0 mg/kg/injection, schedule: Q01DX001 (ip), vehicle: saline) was 111 % of control, the T/C (dose: 10.0 mg/kg/injection, schedule: Q01DX001 (ip), vehicle: saline) was 105 % of control and the T/C (dose: 20.0 mg/kg/injection, schedule: Q01DX001 (ip), vehicle: saline) was 111 % of control.

For `OC1CC2CCC(C1)N2CCCN1c2ccccc2Sc2ccc(Cl)cc21` (centres undefined), the T/C (dose: 25.0 mg/kg/injection, schedule: Q01DX009 (ip), vehicle: saline with Tween-80) was 112 % of control, the T/C [8] was 87 % of control and the T/C (dose: 50.0 mg/kg/injection, schedule: Q04DX003 (ip), vehicle: saline with Tween-80) was 97 % of control. The T/C [14] was 112 % of control and the T/C (dose: 133.0 mg/kg/injection, schedule: Q04DX003 (ip), vehicle: saline with Tween-80) was 107 % of control.

For `O=C(Nc1cccc(C2=NCCN2)c1)c1ccc2cc(C(=O)Nc3cccc(C4=NCCN4)c3)ccc2c1`, the T/C (dose: 7.5 mg/kg/injection, schedule: Q01DX Z (ip), vehicle: carboxymethylcellulose (CMC)) was 106 % of control, the T/C (dose: 15.0 mg/kg/injection, schedule: Q01DX Z (ip), vehicle: carboxymethylcellulose (CMC)) was 104 % of control and 115 % of control and the T/C (dose: 30.0 mg/kg/injection, schedule: Q01DX Z (ip), vehicle: carboxymethylcellulose (CMC)) was 104 % of control and 123 % of control. The T/C (dose: 60.0 mg/kg/injection, schedule: Q01DX Z (ip), vehicle: carboxymethylcellulose (CMC)) was 119 % of control and the T/C (dose: 120.0 mg/kg/injection, schedule: Q01DX Z (ip), vehicle: carboxymethylcellulose (CMC)) was 120 % of control.

With `CN(C)P1(=O)N(C)CCN1C` the T/C [1] was 100 % of control, the T/C [2] was 98 % of control and the T/C [3] was 94 % of control.

`CC1CCC2(OC1)OC1CC3C4CCC5CC(=O)CCC5(C)C4CCC3(C)C1C2C` (centres undefined) was tested, and the T/C [4] was 102 % of control, the T/C (dose: 200.0 mg/kg/injection, schedule: Q04DX002 (ip), vehicle: Klucel (hydroxypropylcellulose) (HPC)) was 105 % of control and the T/C (dose: 400.0 mg/kg/injection, schedule: Q04DX002 (ip), vehicle: Klucel (hydroxypropylcellulose) (HPC)) was 94 % of control.

In the case of `O=C(O)C1CCCCC1`, the T/C (dose: 50.0 mg/kg/injection, schedule: Q01DX001 (ip), vehicle: carboxymethylcellulose (CMC)) was 96 % of control, the T/C [11] was 98 % of control and the T/C [12] was 104 % of control. The T/C (dose: 400.0 mg/kg/injection, schedule: Q01DX001 (ip), vehicle: carboxymethylcellulose (CMC)) was 96 % of control.
